The source of these data is patent US20070248672A1, “Indole and Azaindole Derivatives with Antitumor Action” (priority 2004, published 2007).

Assay [1] concerns the target Vacuolar ATPase in human osteoclastoma (hOc) (Homo sapiens, UniProt P27449+Q13488). Kind of assay: Vacuolar ATPase inhibition in human osteoclastoma (hOc) microsomal fraction. The note with it: 30 min, 37° C. In kind it is biochemical. As for the experimental part: 1.1 Determination of Vacuolar ATpase Inhibition in Human Osteoclastoma (hOc)
Osteoclast-like giant cells isolated from human osteoclastoma are homogenized using a glass-teflon homogeniser (1000 rpm) and the material is centrifuged for 20 minutes at 6000 g. The resultant pellet is resuspended and centrifuged at 100000 g for 60 minutes to sediment the microsomal fraction. The resultant pellet is resuspended in medium at pH 7.4 and stored under liquid nitrogen.
Inhibition of bafilomycin sensitive ATPase activity is assayed by measuring the release of inorganic phosphate during 30 minutes of incubation, at 37° C., of the human osteoclastoma microsomal fraction in 96-well plates. The reaction medium contains 1 mM ATP, 10 mM Hepes-Tris buffer pH 8, 50 mM KCl, 5 μM valinomycin, 5 μM nigericin, 1 mM CDTA-Tris, 100 μM ammonium molybdate, 0.2 M sucrose and the microsomal fraction (20 μg protein/ml). The reaction is initiated by adding MgSO4 and terminated, after 30 minutes, by adding 4 volumes of the reagent malachite green, prepared according to Chan K., Anal. Biochem. 157, 375-380, 1986.

In assay [2] the test system is HT29 cells. Kind of assay: Antiproliferative activity, 72 h treatment, SRB assay, HT29. In kind it is cell-based, human. The note with it: Homo sapiens. As to the method: (§1) HT29 and HT29/Mit (line obtained by prolonged exposure to mitoxantrone, and characterised by overexpression of BCRP, which confers cross resistance to topotecan, irinotecan and to its metabolite SN38): maintained in McCoy 5A medium+10% FCS.
(§2) 2.2 Scheme of the Antiproliferative Activity Experiment (Treatment Time: 72 Hours)
(§3) The cells (HT29 and HT29/Mit: 40,000 cells/ml, LoVo, LoVo/Dx and HCT116: 50,000 cells/ml) are seeded in 100 μl of the respective culture media in 96-well plates. 24 hours after seeding, an aliquot (10 μl) of drug at the various concentrations is added. In the samples in which the effect of the combination of two compounds is to be tested the inhibitor is added immediately before the cytotoxic. For each dose or combination of doses/drugs the effect of the treatment is determined in 4-8 replicates.
(§4) After 72 hours of treatment the antiproliferative effect is evaluated using the sulforhodamine B (SRB) assay: the cells are fixed by adding 25 μl of 50% TCA to each well and left for 1 hour at 4° C. After washing them with water and allowing them to dry, 100 μl of 0.4% SRB in 1% acetic acid are added and left for 30 minutes at room temperature. After 4 washes in 1% acetic acid, they are left to dry then the dye fixed by the proteins is dissolved under basic conditions with 100 μl 10 mM cold Tris and the solution is read using a spectrophotometer at 550 nm.
(§5) Percentage cell growth is calculated as the optical density of treated samples compared to the optical density of controls (untreated cells).
On the technique in general: The SRB assay estimates cell density from bound dye.

The subject of a further assay is HT29/Mit cells. Kind of assay: Antiproliferative activity, 72 h treatment, SRB assay, HT29/Mit resistant line. In kind it is cell-based, human. The note with it: Homo sapiens. As to the method:
as §1, §2, §3, §4, §5

Assay [3] relates to HT29 cells. Kind of assay: Co-treatment with topotecan, HT29 cells (Combination Index according to Kern). The note with it: HT29; compound at 4 μM (3 experiments) and 8 μM (2 experiments), subtoxic doses. In kind it is cell-based, human. As to the method:
as §3, §4, §5
The Combination Index (C.I.) was determined according to Kern's method, 1988 (who continued from Drewinko B, 1976) (Kem D. H., Cancer Res. 48, 117-121, 1988; Drewinko B., Cancer Biochem. Biophys. 1, 187-195, 1976) by means of the following formula: […], where SFa and SFb are the fractions of cells surviving to treatment with compound a and b, respectively; SFab is the fraction surviving to the combination of compounds a and b. If the result is =1, the interaction between the two compounds is additive; if it is >1, the interaction between the two compounds is synergistic; if it is <1, the interaction between the two compounds is antagonistic.

Like-named read-outs stand apart in the source and are kept apart here.

Vacuolar ATPase in human osteoclastoma (hOc), sequence (P27449 whole entry, looked up): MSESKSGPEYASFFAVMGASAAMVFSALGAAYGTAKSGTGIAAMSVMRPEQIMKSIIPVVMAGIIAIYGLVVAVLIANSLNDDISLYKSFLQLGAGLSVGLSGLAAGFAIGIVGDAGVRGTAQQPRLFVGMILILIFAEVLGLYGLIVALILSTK
Vacuolar ATPase in human osteoclastoma (hOc), sequence (Q13488 whole entry, looked up): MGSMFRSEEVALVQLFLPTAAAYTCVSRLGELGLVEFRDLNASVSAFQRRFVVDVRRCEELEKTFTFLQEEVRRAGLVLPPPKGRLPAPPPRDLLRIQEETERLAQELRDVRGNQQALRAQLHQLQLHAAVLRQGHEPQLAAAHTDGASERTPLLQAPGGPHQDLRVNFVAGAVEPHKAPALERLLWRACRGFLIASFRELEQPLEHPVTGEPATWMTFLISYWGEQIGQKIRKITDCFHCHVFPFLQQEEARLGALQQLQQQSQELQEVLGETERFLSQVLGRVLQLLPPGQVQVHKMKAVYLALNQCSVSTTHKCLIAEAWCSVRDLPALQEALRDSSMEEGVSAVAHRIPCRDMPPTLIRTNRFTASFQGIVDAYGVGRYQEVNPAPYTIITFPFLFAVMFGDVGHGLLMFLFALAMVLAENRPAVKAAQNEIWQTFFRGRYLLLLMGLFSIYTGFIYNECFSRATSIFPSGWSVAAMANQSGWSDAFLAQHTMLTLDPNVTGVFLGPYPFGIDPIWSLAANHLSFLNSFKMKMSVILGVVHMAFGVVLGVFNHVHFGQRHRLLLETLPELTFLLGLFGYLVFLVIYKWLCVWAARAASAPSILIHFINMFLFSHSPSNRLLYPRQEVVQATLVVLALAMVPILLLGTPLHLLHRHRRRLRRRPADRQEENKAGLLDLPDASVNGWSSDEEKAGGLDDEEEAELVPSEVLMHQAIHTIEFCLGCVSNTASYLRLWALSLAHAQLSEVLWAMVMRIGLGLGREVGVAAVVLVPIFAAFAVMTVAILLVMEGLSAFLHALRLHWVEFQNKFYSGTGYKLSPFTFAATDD

For the compound `COC(=O)c1[nH]c2cc(OC)c(OC)cc2c1-c1ccc(OC)cc1` [Example 1, 5,6-Dimethoxy-3-(4-methoxy-phenyl)-1H-indole-2-carboxylic acid methyl ester], the IC50 was 500 nM in assay [1]; 5000 to 42000 nM in the assay on HT29 cells [2] (HT-29, HT29, after 72 hours of treatment, range stated for the group, read-out: IC50 values in the sensitive line); 14400 ± 2100 nM in the assay on HT29 cells [2] (HT-29, 72 h treatment, read-out: Antiproliferative activity (IC50 ± S.D.) HT-29 72 h treatment); 100 to 3000 nM with HT29/Mit cells (HT-29, HT29/Mit, after 72 hours of treatment, range stated for the group, read-out: IC50 values in the resistant line); 1000 ± 900 nM in the assay on HT29/Mit cells (HT-29/Mit resistant line, 72 h treatment, read-out: Antiproliferative activity (IC50 ± S.D.) HT-29/Mit). Further, the “effect of combination with topotecan (Combination Index according to Kern)” value with HT29 cells [3] was “clear synergistic effect”.
